Key:
FADD−/− Jurkat cells = assay: Necroptosis inhibition assay, TNF-α-induced necroptosis (CellTiter-Glo 2.0); format: cell-based, human; settings: TNF-α 15 ng/mL; for Necroptosis inhibition assay (Rescue %) 1 μM: compound 1 μM; for Necroptosis inhibition assay (Rescue %) 10 μM: compound 10 μM
Method in brief: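 Compound is added to cells at final concentrations of 0.1, 1 and 10 μM and left 30 minutes at room temperature. Necroptosis is induced with 15 ng/mL TNF-α, culture continues 20 to 24 hours at 37° C, and ATP-based luminescence reports viability.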

MLKL [1] = biological target: T1, MLKL (Homo sapiens, UniProt Q8NB16); assay: MLKL degradation assay in HepG2 cell line (western blot); format: cell-based; parameters: endogenous in cells; host or cells: HepG2 or HaCaT; settings: cell line not given; for Degradation assay (Degradation %) 1 μM: compound 1 μM; for Degradation assay (Degradation %) 10 μM: compound 10 μM
T1 sequence (Q8NB16 1-471): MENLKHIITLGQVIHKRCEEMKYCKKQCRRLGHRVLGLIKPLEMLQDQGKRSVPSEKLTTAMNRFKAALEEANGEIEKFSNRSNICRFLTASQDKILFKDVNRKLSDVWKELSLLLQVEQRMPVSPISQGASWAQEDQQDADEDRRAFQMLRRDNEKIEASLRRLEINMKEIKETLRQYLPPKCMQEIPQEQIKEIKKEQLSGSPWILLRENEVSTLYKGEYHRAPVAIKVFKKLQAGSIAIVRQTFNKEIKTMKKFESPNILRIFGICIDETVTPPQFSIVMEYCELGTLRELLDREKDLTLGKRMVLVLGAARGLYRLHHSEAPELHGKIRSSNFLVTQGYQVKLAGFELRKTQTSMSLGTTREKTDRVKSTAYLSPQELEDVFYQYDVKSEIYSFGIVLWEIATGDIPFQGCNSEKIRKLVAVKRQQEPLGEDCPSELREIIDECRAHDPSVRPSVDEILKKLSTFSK
Method in brief: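 Chemiluminescent western blot signal reports remaining MLKL protein in HepG2 cells after 20-24 h treatment with compound at a final 1 or 10 μM. Equal protein (10-15 μg, BCA) is loaded per lane.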

MLKL [2] = biological target: T1, MLKL; assay: Measurement of binding affinity with MLKL receptor (competitive binding assay, Kd); parameters: made in house; host or cells: HEK 293 cell line (T7 phage in E. coli BL21-derived host is also described)
Method in brief: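 MLKL was produced in HEK 293 cells and tagged with DNA for detection. Liganded beads were blocked with excess biotin and washed to cut non-specific binding, then compounds (111× DMSO stocks, 0.9% DMSO in assay) competed for binding. Eluate kinase was measured by qPCR for Kd.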

SMILES | Degradation assay (Degradation %) 1 μM (MLKL [1]) [%] | Degradation assay (Degradation %) 10 μM (MLKL [1]) [%] | Kd (MLKL [2]) [nM] | Necroptosis inhibition assay (Rescue %) 1 μM (FADD−/− Jurkat cells) [%] | Necroptosis inhibition assay (Rescue %) 10 μM (FADD−/− Jurkat cells) [%]
Nc1ncc(-c2cnn(C3CCN(CCCN4CCN(c5ccc6c(c5)C(=O)N(C5CCC(=O)NC5=O)C6=O)CC4)CC3)c2)nc1C(=O)OC(C(=O)Nc1ccc(F)cc1)c1ccccc1 (stereo not shown) [TDH-246, 2-((4-fluorophenyl)amino)-2-oxo-1-phenylethyl 3-amino-6-(1-(1-(3-(4-(2-(2,6-dioxopiperidin-3-yl)-1,3-dioxoisoindolin-5-yl)piperazin-1-yl)propyl)piperidin-4-yl)-1H-pyrazol-4-yl)pyrazine-2-carboxylate] | 66.35 | 46.78 | 3.3 | 60.97 | 26.97
Nc1ncc(-c2cnn(C3CCN(CCOC4CCN(C(=O)C5CCN(c6cccc7c6C(=O)N(C6CCC(=O)NC6=O)C7=O)CC5)CC4)CC3)c2)nc1C(=O)OC(C(=O)Nc1ccc(F)cc1)c1ccccc1 (stereo not shown) [TDH-247, 2-((4-fluorophenyl)amino)-2-oxo-1-phenylethyl 3-amino-6-(1-(1-(2-((1-(1-(2-(2,6-dioxopiperidin-3-yl)-1,3-dioxoisoindolin-4-yl)piperidine-4-carbonyl)piperidin-4-yl)oxy)ethyl)piperidin-4-yl)-1H-pyrazol-4-yl)pyrazine-2-carboxylate] | 64.32 | 45.04 | 4.6 | 40.99 | 33.69
Nc1ncc(-c2cnn(C3CCN(CCOC4CCN(C(=O)C5CCN(c6ccc7c(c6)C(=O)N(C6CCC(=O)NC6=O)C7=O)CC5)CC4)CC3)c2)nc1C(=O)OC(C(=O)Nc1ccc(F)cc1)c1ccccc1 (stereo not shown) [TDH-248, 2-((4-fluorophenyl)amino)-2-oxo-1-phenylethyl 3-amino-6-(1-(1-(2-((1-(1-(2-(2,6-dioxopiperidin-3-yl)-1,3-dioxoisoindolin-5-yl)piperidine-4-carbonyl)piperidin-4-yl)oxy)ethyl)piperidin-4-yl)-1H-pyrazol-4-yl)pyrazine-2-carboxylate] | 47.44 | 14.59 | 8.5 | 72.38 | 51.46
Nc1ncc(-c2cnn(C3CCN(CCOC4CCN(C(=O)CNc5cccc6c5C(=O)N(C5CCC(=O)NC5=O)C6=O)CC4)CC3)c2)nc1C(=O)OC(C(=O)Nc1ccc(F)cc1)c1ccccc1 (stereo not shown) [TDH-249, 2-((4-fluorophenyl)amino)-2-oxo-1-phenylethyl 3-amino-6-(1-(1-(2-((1-((2-(2,6-dioxopiperidin-3-yl)-1,3-dioxoisoindolin-4-yl)glycyl)piperidin-4-yl)oxy)ethyl)piperidin-4-yl)-1H-pyrazol-4-yl)pyrazine-2-carboxylate] | 35.81 | 28.42 | 5.4 | 45.5 | 44.81

Now from value to compound, other results behind:

Degradation assay (Degradation %) 1 μM (MLKL [1]) [%] | Degradation assay (Degradation %) 10 μM (MLKL [1]) [%] | Kd (MLKL [2]) [nM] | SMILES | Necroptosis inhibition assay (Rescue %) 1 μM (FADD−/− Jurkat cells) [%] | Necroptosis inhibition assay (Rescue %) 10 μM (FADD−/− Jurkat cells) [%]
78.33 | 71.54 | 4.9 | Nc1ncc(-c2cnn(C3CCN(CCOC4CCN(C(=O)CNc5ccc6c(c5)C(=O)N(C5CCC(=O)NC5=O)C6=O)CC4)CC3)c2)nc1C(=O)OC(C(=O)Nc1ccc(F)cc1)c1ccccc1 (stereo not shown) [TDH-250, 2-((4-fluorophenyl)amino)-2-oxo-1-phenylethyl 3-amino-6-(1-(1-(2-((1-((2-(2,6-dioxopiperidin-3-yl)-1,3-dioxoisoindolin-5-yl)glycyl)piperidin-4-yl)oxy)ethyl)piperidin-4-yl)-1H-pyrazol-4-yl)pyrazine-2-carboxylate] | 69.46 | 46.6
72.87 | 63.25 | 1.8 | Nc1ncc(-c2cnn(C3CCN(CCOC4CCN(C(=O)COc5cccc6c5C(=O)N(C5CCC(=O)NC5=O)C6=O)CC4)CC3)c2)nc1C(=O)OC(C(=O)Nc1ccc(F)cc1)c1ccccc1 (stereo not shown) [TDH-251, 2-((4-fluorophenyl)amino)-2-oxo-1-phenylethyl 3-amino-6-(1-(1-(2-((1-(2-((2-(2,6-dioxopiperidin-3-yl)-1,3-dioxoisoindolin-4-yl)oxy)acetyl)piperidin-4-yl)oxy)ethyl)piperidin-4-yl)-1H-pyrazol-4-yl)pyrazine-2-carboxylate] | 84.44 | 74.61
76.56 | 84.2 | 3.9 | Nc1ncc(-c2cnn(C3CCN(CCOC4CCN(C(=O)COc5ccc6c(c5)C(=O)N(C5CCC(=O)NC5=O)C6=O)CC4)CC3)c2)nc1C(=O)OC(C(=O)Nc1ccc(F)cc1)c1ccccc1 (stereo not shown) [TDH-252, 2-((4-fluorophenyl)amino)-2-oxo-1-phenylethyl 3-amino-6-(1-(1-(2-((1-(2-((2-(2,6-dioxopiperidin-3-yl)-1,3-dioxoisoindolin-5-yl)oxy)acetyl)piperidin-4-yl)oxy)ethyl)piperidin-4-yl)-1H-pyrazol-4-yl)pyrazine-2-carboxylate] | 124.11 | 73.38
80.74 | 59.15 | 10 | Nc1ncc(-c2cnn(C3CCN(CCOC4CCN(c5cccc6c5C(=O)N(C5CCC(=O)NC5=O)C6=O)CC4)CC3)c2)nc1C(=O)OC(C(=O)Nc1ccc(F)cc1)c1ccccc1 (stereo not shown) [TDH-253, 2-((4-fluorophenyl)amino)-2-oxo-1-phenylethyl 3-amino-6-(1-(1-(2-((1-(2-(2,6-dioxopiperidin-3-yl)-1,3-dioxoisoindolin-4-yl)piperidin-4-yl)oxy)ethyl)piperidin-4-yl)-1H-pyrazol-4-yl)pyrazine-2-carboxylate] | 65.01 | 36.1
19.16 | 25.97 | 8 | Nc1ncc(-c2cnn(C3CCN(CCOC4CCN(c5ccc6c(c5)C(=O)N(C5CCC(=O)NC5=O)C6=O)CC4)CC3)c2)nc1C(=O)OC(C(=O)Nc1ccc(F)cc1)c1ccccc1 (stereo not shown) [TDH-254, 2-((4-fluorophenyl)amino)-2-oxo-1-phenylethyl 3-amino-6-(1-(1-(2-((1-(2-(2,6-dioxopiperidin-3-yl)-1,3-dioxoisoindolin-5-yl)piperidin-4-yl)oxy)ethyl)piperidin-4-yl)-1H-pyrazol-4-yl)pyrazine-2-carboxylate] | 24.05 | 15.37
35.59 | 34.35 | 41 | Nc1ncc(-c2ccc(N3CCN(CC4CCN(C(=O)COc5cccc6c5C(=O)N(C5CCC(=O)NC5=O)C6=O)CC4)CC3)nc2)nc1C(=O)OC(C(=O)Nc1ccc(F)cc1)c1ccccc1 (stereo not shown) [TDH-255, 2-((4-fluorophenyl)amino)-2-oxo-1-phenylethyl 3-amino-6-(6-(4-((1-(2-((2-(2,6-dioxopiperidin-3-yl)-1,3-dioxoisoindolin-4-yl)oxy)acetyl)piperidin-4-yl)methyl)piperazin-1-yl)pyridin-3-yl)pyrazine-2-carboxylate] | 46.68 | 32.39
36.84 | 24.99 | 78 | Nc1ncc(-c2ccc(N3CCN(CC4CCN(C(=O)COc5ccc6c(c5)C(=O)N(C5CCC(=O)NC5=O)C6=O)CC4)CC3)nc2)nc1C(=O)OC(C(=O)Nc1ccc(F)cc1)c1ccccc1 (stereo not shown) [TDH-256, 2-((4-fluorophenyl)amino)-2-oxo-1-phenylethyl 3-amino-6-(6-(4-((1-(2-((2-(2,6-dioxopiperidin-3-yl)-1,3-dioxoisoindolin-5-yl)oxy)acetyl)piperidin-4-yl)methyl)piperazin-1-yl)pyridin-3-yl)pyrazine-2-carboxylate] | 45.87 | 44.55

Reference: patent publication US20240252488A1 (KOREA RESEARCH INSTITUTE OF CHEMICAL TECHNOLOGY, priority 2020, published 2024)
